Results: patent US20070218002A1, “Method for Detecting Alzheimer's Disease and other Forms of Dementia, and Measuring Their Progression” (priority 2004, published 2007)
“Also recorded” adds a separate entry of the source.

Key:
[1] = test system: Tau aggregates and amyloid plaques; test: In vitro [F-18]FDDNP digital autoradiography on brain tissue slices; type: binding, human
Experimental: Two AD and three control brain samples were obtained at the time of autopsy from the Alzheimer's Disease Research Center at USC Keck School of Medicine, Los Angeles. Glass mounted whole-hemisphere brain cryosections (100 μm thick), cut at the level of hippocampus, were incubated with 1.85 MBq/mL of […] in 50 mM Tris buffer/saline (pH=7.4) for 2 hours at room temperature. The samples were exposed to β^+-sensitive phosphor storage plates for 60 min, scanned in with BAS 5000 Phosphorimager, and analyzed with MacBAS software provided with the instrument (Fuji Film Medical Systems USA, Stamford, Conn.). […] All values were normalized to the inner layer, known to be well preserved in AD (16). [F-18]FDDNP autoradiography was performed as described elsewhere (17). In brief, the de-fattened tissue slices were incubated with 0.37 MBq/mL of [F-18]FDDNP in 1% ethanol in normal saline for 25 min at room temperature followed by differentiation in 60% 2-methyl-2-butanol (3 min). The sections were exposed to β^+-sensitive phosphor storage plates for 60 min and scanned in with BAS 5000 Phosphorimager.

[2] = test system: NFTs and SPs (neurofibrillary tangles, β-amyloid senile plaques); test: [F-18]FDDNP PET, Logan plot relative distribution volume; type: in vivo, human; conditions: cerebellum reference
Experimental: All scans were performed with ECAT HR or ECAT HR+ scanners (Siemens-CTI, Knoxville, Tenn.). The subjects were in the supine position with the imaging plane parallel to the orbito-meatal line and with their eyes open and ears unoccluded. A 20 min transmission scan was performed to correct PET data for radiation attenuation. 320-550 MBq of a PET tracer was injected as a bolus injection via the in-dwelling venous catheter, and the consecutive dynamic head PET scans were performed for 1 hour with [F-18]FDG or for 2 hours with [F-18]MPPF or with [F-18]FDDNP.
All PET scans were decay corrected and reconstructed using filtered-back projection (Hann filter, 5 mm FWHM) with scatter and attenuation correction. The resulting images contained either 47 contiguous slices with 3.4 mm plane-to-pane separation (EXACT HR) or 63 contiguous slices with the plane-to-plane separation of 2.42 mm (EXACT HR+).
Quantitation of [F-18]FDDNP data was performed using the Logan plot graphical analysis with the cerebellum as the reference region. Distribution volume ratio (DVR) parametric images were created as described elsewhere. ROIs were drawn bilaterally on the early frames of the dynamic PET scan (3 min to 6 min post-injection) using MRI as a guide bilaterally on the transaxial images on frontal lobe, on parietal lobe, on medial temporal lobe, and on lateral temporal lobe. In addition, a single ROI was placed on posterior cingulated gyrus. DV values for cortical regions were extracted from the [F-18]FDDNP DV parametric image using the above-described ROI set. DV values were determined for all 9 cortical ROIs and for cerebellum. Relative global neocortical [F-18]FDDNP distribution volume (global DVR) was determined by dividing the DV average value of the eight neocortical ROIs with the DV average value of cerebellar ROIs. In similar fashion, regional relative distribution volumes (DVRs) were determined for frontal, parietal, lateral temporal and medial temporal areas by dividing the DV average of both ROIs from the corresponding region with the DV average value of cerebellar ROIs. The posterior cingulated gyrus DVR was determined by dividing the cingulated gyrus DV value with the DV average value of cerebellar ROIs.

CC(=C(C#N)C#N)c1ccc2cc(N(C)CC[18F])ccc2c1 [[F-18]FDDNP, 2-(1-{6-[(2-[F-18]fluoroethyl)(methyl)amino]-2-naphthyl}ethylidene)malononitrile]
[F-18]FDDNP binding to gray matter, autoradiography ([1]; AD tissue): increased in the gray matter of temporal and limbic lobes; also recorded: strong [F-18]FDDNP binding to the gray matter in the temporal lobe and in cingulated gyrus | [F-18]FDDNP binding to gray matter, autoradiography ([1]; normal control brain samples): uniformly low; also recorded: none of the gray matter areas from the normal control brain samples showed [F-18]FDDNP binding above background levels in white matter | FDDNP mean DVR ± 1 SD, Frontal Lobe ([2]; AD group): 1.11 ± 0.03 | FDDNP mean DVR ± 1 SD, Global ([2]; AD group): 1.17±0.01 | FDDNP mean DVR ± 1 SD, Lateral Temporal Lobe ([2]; AD group): 1.17 ± 0.03 | FDDNP mean DVR ± 1 SD, Medial Temporal Lobe ([2]; AD group): 1.23 ± 0.04 | FDDNP mean DVR ± 1 SD, Parietal Lobe ([2]; AD group): 1.17 ± 0.03 | FDDNP mean DVR ± 1 SD, Posterior Cingulate Gyrus ([2]; AD group): 1.18 ± 0.06 | FDDNP mean DVR ± 1 SD, Global ([2]; AD group, listed as FDDNP): 1.17 ± 0.01 | FDDNP mean DVR ± 1 SD, Frontal Lobe ([2]; CTRL group): 1.05 ± 0.01 | FDDNP mean DVR ± 1 SD, Global ([2]; CTRL group): 1.08±0.03 | FDDNP mean DVR ± 1 SD, Lateral Temporal Lobe ([2]; CTRL group): 1.07 ± 0.03 | FDDNP mean DVR ± 1 SD, Medial Temporal Lobe ([2]; CTRL group): 1.12 ± 0.05 | FDDNP mean DVR ± 1 SD, Parietal Lobe ([2]; CTRL group): 1.07 ± 0.03 | FDDNP mean DVR ± 1 SD, Posterior Cingulate Gyrus ([2]; CTRL group): 1.07 ± 0.05 | FDDNP mean DVR ± 1 SD, Global ([2]; CTRL group, listed as FDDNP): 1.08 ± 0.03 | FDDNP mean DVR ± 1 SD, Frontal Lobe ([2]; MCI group): 1.08 ± 0.01 | FDDNP mean DVR ± 1 SD, Global ([2]; MCI group): 1.12 ± 0.01 | FDDNP mean DVR ± 1 SD, Lateral Temporal Lobe ([2]; MCI group): 1.13 ± 0.03 | FDDNP mean DVR ± 1 SD, Medial Temporal Lobe ([2]; MCI group): 1.19 ± 0.02 | FDDNP mean DVR ± 1 SD, Parietal Lobe ([2]; MCI group): 1.09 ± 0.03 | FDDNP mean DVR ± 1 SD, Posterior Cingulate Gyrus ([2]; MCI group): 1.12 ± 0.03
